Where two headings read alike, the source gives them in different places.
Tests used:
PI3Kδ = PI3Kδ (Homo sapiens, UniProt O00329); test: PI3Kδ inhibitory activity (Ki value); format: biochemical
Procedure: (§1) According to Example 2 above, after 80 μg/mL PI-3 kinase γ of the enzyme solution (80 μg/mL PI-3 kinase γ, 10 mmol/L MgCl2, 5 mmol/L DTT) was changed to 158 μg/mL PI-3 kinase δ, a method similar to the method for measuring PI3Kγ inhibitory activity was used to calculate an inhibition ratio, which was defined as the PI3Kδ inhibitory activity.
According to Example 4 above, a Km value for PI3Kδ was determined to calculate a Ki value.

PI3Kβ = PI3Kβ (Homo sapiens, UniProt P42338); test: PI3Kβ inhibitory activity (Ki value); format: biochemical
PI3Kβ, sequence (P42338 whole entry, species assumed): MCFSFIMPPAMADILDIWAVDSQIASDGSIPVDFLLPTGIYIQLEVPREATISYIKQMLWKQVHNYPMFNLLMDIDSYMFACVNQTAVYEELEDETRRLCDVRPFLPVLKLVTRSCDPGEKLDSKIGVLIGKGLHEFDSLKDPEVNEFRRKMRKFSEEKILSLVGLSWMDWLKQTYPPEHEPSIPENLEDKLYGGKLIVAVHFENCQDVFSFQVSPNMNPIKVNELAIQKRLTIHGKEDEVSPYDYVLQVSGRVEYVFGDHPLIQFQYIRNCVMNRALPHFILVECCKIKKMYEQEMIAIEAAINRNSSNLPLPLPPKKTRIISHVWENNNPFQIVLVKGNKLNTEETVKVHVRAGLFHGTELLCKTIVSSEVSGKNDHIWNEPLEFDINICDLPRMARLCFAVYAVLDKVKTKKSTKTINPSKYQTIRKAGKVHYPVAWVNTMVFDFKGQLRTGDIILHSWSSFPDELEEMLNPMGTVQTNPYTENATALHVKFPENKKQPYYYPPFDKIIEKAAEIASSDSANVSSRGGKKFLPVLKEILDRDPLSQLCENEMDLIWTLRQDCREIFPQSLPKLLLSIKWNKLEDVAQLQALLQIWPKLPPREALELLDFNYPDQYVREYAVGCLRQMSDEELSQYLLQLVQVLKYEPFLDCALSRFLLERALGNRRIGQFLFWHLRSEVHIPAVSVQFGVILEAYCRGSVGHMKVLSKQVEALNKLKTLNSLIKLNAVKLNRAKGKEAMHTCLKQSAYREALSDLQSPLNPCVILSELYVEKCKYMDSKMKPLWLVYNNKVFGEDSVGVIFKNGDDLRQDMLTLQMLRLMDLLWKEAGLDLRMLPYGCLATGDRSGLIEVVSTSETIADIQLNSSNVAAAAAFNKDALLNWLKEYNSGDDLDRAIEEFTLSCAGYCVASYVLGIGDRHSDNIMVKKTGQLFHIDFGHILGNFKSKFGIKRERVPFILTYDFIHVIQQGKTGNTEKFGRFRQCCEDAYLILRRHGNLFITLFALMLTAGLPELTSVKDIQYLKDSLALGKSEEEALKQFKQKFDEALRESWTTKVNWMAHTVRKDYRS
PI3Kβ, sequence (P27986 whole entry partner, species assumed): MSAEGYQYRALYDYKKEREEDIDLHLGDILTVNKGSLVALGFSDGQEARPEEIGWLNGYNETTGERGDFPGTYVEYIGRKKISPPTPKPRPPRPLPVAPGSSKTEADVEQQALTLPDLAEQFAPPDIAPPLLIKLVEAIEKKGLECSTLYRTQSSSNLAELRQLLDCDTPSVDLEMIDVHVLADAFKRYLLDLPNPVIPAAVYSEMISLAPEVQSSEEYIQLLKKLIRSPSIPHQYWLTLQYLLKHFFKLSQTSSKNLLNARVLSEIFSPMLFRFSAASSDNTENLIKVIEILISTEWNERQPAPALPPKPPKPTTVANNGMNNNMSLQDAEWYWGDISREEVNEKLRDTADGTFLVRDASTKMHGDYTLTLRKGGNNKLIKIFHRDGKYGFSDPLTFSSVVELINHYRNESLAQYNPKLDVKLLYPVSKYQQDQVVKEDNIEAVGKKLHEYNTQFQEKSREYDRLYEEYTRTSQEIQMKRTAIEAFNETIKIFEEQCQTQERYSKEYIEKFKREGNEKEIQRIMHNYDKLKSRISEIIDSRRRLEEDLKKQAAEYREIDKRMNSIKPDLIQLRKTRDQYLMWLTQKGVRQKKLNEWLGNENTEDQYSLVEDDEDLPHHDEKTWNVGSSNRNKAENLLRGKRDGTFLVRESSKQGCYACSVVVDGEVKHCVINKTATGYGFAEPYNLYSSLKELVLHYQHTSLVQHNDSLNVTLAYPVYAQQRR
Procedure: as §1, with “60” for “158”, “β,” for “δ,”, “PI3Kβ” for “PI3Kδ”
According to Example 4 above, a Km value for PI3Kβ was determined to calculate a Ki value.

PI3Kγ = PI3Kγ (Homo sapiens, UniProt P48736); test: PI3Kγ inhibitory activity (PI3-kinase HTRF assay, inhibition ratio); format: biochemical; details: compound at 10 μmol/L; for inhibition at 10 µM: 0.5 h, read-out: PI3Kg Inhibition Ratio % (10 μM)
PI3Kγ, sequence (P48736 whole entry, species assumed): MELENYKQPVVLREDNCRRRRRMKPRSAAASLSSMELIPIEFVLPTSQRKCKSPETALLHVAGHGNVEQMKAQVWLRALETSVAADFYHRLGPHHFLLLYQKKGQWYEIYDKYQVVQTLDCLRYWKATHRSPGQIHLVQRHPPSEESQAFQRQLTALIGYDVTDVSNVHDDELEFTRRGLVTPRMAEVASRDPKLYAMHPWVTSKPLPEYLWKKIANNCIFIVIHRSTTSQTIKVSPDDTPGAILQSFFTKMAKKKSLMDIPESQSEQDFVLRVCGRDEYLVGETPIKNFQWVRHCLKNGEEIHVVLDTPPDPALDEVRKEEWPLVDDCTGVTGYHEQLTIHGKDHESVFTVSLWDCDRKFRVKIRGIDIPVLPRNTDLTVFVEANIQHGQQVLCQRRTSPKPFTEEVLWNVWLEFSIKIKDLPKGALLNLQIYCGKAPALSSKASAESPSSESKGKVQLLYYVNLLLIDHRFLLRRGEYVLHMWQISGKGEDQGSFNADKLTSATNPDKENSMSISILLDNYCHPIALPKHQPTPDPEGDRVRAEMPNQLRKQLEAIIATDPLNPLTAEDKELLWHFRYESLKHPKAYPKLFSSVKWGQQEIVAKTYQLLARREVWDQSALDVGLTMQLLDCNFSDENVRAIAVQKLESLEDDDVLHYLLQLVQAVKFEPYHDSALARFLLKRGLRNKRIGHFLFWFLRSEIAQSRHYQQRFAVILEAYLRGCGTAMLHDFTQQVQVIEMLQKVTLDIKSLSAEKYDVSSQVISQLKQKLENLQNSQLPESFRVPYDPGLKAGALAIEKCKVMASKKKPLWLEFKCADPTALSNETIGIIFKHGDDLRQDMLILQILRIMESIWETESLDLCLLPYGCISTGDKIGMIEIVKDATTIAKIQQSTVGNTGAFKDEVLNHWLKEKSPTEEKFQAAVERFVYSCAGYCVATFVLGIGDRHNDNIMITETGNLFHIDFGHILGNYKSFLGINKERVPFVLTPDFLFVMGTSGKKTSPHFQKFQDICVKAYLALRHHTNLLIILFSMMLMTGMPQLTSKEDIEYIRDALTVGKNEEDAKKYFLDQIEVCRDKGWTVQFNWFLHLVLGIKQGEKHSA
In short: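 Compound at 10 μmol/L preincubated 10 min with PI3Kγ and PIP2 substrate, then reacted with ATP for 30 minutes at room temperature; the compound, substrate and ATP figures as printed (40 μmol/L each) are solution concentrations. HTRF 665/620 nm ratio read after 18 hours. Inhibition ratio calculated against no-compound (100%) and no-enzyme (0%) controls.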

AKT phosphorylation = AKT phosphorylation inhibitory activity in MCP-1 stimulated THP-1 cells (sandwich ELISA); format: cell-based, Human; details: compound at 1 μmol/L, MCP-1 stimulation; for inhibition at 1 µM: Homo sapiens, read-out: AKT phosphorylation inhibition ratio
In short: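 THP-1 cells (6.7×10^6/mL in HBSS) were preincubated with compound at 1 μmol/L for 5 min at 37 °C, then stimulated for 60 s with HBSS containing 1.2 μg/mL MCP-1 and lysed. Phospho-Akt Ser473/AKT1 sandwich ELISA was read at A450. % inhibition: no compound = 100% activity, no MCP-1 = 0%.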

[1] = Metabolic stability test (pooled human liver microsome); format: in vitro ADME; details: percentage of test compound remained after 30 minutes, pooled human liver microsome 0.5 mg protein/mL, 1 mmol/L NADPH, 37° C., compound 0.5 μM
In short: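 Pooled human liver microsomes (0.5 mg protein/mL) incubated with compound and 1 mmol/L NADPH at 37° C. in pH 7.4 Tris buffer for 0 or 30 min. Parent quantified by LC/MS/MS after methanol/acetonitrile quench; value is % remaining at 30 min versus 0 min.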

[2] = class symbols, read-out: PI3K δ Ki
[3] = class symbols, read-out: PI3K β Ki

PI3Kδ, sequence (O00329 whole entry, species assumed): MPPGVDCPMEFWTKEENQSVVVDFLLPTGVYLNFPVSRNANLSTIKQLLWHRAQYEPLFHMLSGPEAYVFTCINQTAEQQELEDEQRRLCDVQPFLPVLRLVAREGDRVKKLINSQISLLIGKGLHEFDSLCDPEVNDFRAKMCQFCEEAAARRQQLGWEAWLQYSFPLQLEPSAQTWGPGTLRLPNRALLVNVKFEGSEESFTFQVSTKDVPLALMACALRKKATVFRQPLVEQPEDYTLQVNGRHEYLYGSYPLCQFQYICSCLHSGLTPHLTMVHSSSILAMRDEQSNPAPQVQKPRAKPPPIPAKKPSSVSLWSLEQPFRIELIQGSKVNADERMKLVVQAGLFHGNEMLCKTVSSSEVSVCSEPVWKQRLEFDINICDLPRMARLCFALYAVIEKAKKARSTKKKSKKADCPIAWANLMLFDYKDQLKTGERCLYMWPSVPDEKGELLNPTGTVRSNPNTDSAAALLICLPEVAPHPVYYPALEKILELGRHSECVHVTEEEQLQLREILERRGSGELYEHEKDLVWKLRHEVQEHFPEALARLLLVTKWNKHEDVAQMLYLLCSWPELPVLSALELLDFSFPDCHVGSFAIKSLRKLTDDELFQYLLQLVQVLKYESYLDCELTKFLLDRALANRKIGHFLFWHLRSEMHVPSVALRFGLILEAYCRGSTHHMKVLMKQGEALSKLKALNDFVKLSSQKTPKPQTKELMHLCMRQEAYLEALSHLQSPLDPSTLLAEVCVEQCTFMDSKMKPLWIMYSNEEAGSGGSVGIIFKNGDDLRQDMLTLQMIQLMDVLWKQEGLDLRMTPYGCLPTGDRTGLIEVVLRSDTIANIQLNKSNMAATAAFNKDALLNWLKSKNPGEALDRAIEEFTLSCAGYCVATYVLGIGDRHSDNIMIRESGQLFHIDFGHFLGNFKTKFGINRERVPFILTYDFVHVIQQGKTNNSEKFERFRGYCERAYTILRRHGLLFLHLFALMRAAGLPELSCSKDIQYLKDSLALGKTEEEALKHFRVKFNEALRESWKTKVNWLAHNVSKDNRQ
PI3Kδ, sequence (P27986 whole entry partner, species assumed): as the sequence (P27986 whole entry partner, species assumed) above

Structure (SMILES)	Ki (PI3Kδ; [2]) [µM]	Ki (PI3Kδ; read-out: PI3Kδ Ki value) [µM]	Ki (PI3Kβ; [3]) [µM]	Ki (PI3Kβ; read-out: PI3Kβ Ki value) [µM]	inhibition at 10 µM (PI3Kγ) [%]	inhibition at 1 µM (AKT phosphorylation) [%]	hLMS_ox(at 0.5 μM) % [1] [%]	PI3Kg Inhibition Ratio % (10 μM) (PI3Kγ)	AKT phosphorylation inhibition ratio (AKT phosphorylation) [%]
COc1cc(N2CCc3nc(NC(=O)Nc4ccccc4C(=O)NC(C)C)sc3C2)nc(OC)n1 [Compound I-12]	≤ 3	0.59	≤ 3	0.34	94	≥ 95	–	–	–
COc1cc(N2CCc3nc(NC(=O)Nc4ccccc4C(=O)NCCF)sc3C2)nc(OC)n1 [Compound I-88]	–	–	–	–	≥ 95	87.3	88.2	–	–
COc1nc(Cl)cc(N2CCc3nc(NC(=O)Nc4cnccc4C(=O)NC(C)C)sc3C2)n1 [Compound I-91]	≤ 3	–	≤ 3	–	≥ 95	94.7	–	–	–
COc1cncc(-c2ccc3nc(NC(=O)Nc4ccccc4OCCC(C)C)cn3n2)c1 [Compound I-114]	≤ 3	2	≤ 3	0.66	–	64.9	–	–	–
Cc1nc(NC(=O)Nc2ccccc2C(=O)NC(C)C)sc1-c1ccc(S(C)(=O)=O)c(F)c1 [Compound I-127]	≤ 0.3	0.081	≤ 3	0.34	≥ 95	77.7	92.6	–	–
CC(C)NC(=O)c1ccccc1NC(=O)Nc1nc2c(s1)CN(c1cncc(C(F)(F)F)c1)CC2 [Compound I-131]	> 3	–	> 3	–	78	84	–	–	–
COc1cc(N2CCc3nc(NC(=O)Nc4ccccc4C(=O)NC(C)C(O)C(F)(F)F)sc3C2)nc(OC)n1 (stereo not drawn) [Compound I-139]	–	–	–	–	–	–	84.8	≧95%	≥ 95
COc1cc(N2CCc3nc(NC(=O)Nc4cn(C)nc4C(=O)NCC(F)(F)F)sc3C2)nc(OC)n1 [Compound I-148]	≤ 0.3	–	≤ 0.3	–	90	≥ 95	87.9	–	–
Cc1nc(NC(=O)Nc2ccccc2C(=O)NC(C)C)sc1-c1csc(S(=O)(=O)N(C)CCN(C)C)c1 [Compound I-191]	–	–	–	–	87	93	–	–	–
COc1cc(N2CCc3nc(NC(=O)Nc4ccccc4C(=O)NN4CCN(C)CC4)sc3C2)nc(OC)n1 [Compound I-195]	–	–	–	–	≥ 95	82	110	–	–
COc1nc(Cl)cc(N2CCc3nc(NC(=O)Nc4ccccc4C(=O)NC4CCCOC4)sc3C2)n1 (stereo not drawn) [Compound I-197]	> 3	–	> 3	–	≥ 95	90	–	–	–
CC(C)NC(=O)c1ccccc1NC(=O)Nc1nc2c(s1)CN(c1cccc(S(C)(=O)=O)c1)CC2 [Compound I-198]	–	–	–	–	≥ 95	94	–	–	–
COc1cc(N2CCc3nc(NC(=O)Nc4ccccc4C(=O)NC4CCOCC4)sc3C2)nc(OC)n1 [Compound I-203]	–	–	–	–	91	≥ 95	88.5	–	–
C[C@@H](CO)NC(=O)c1ccccc1NC(=O)Nc1nc2c(s1)CN(c1cncc(S(C)(=O)=O)c1)CC2 [Compound I-211]	–	–	–	–	87	85	–	–	–
COc1cncc(-c2cc(NC(=O)Nc3ccccc3C(=O)NC(C)C)nn2C)c1 [Compound I-226]	≤ 3	–	> 3	–	93	–	82.5	–	–

Reference: patent US20120071475A1, “UREA DERIVATIVES HAVING PI3K-INHIBITING ACTIVITY” (SHIONOGI & CO., LTD., priority 2009, published 2012)
